Laboratory results reported in patent US20020082254A1, “Compounds for treating disorders where a decreased level of plasma FFA is desired” (priority 2000, published 2002).

Tests used:
[1] = target: T1, Hepatic lipase (HL) (Homo sapiens, UniProt P11150); assay: Hepatic lipase (HL) inhibition assay, 3H-triolein substrate; type: biochemical; conditions: read-out: HL inhibition (% inh. at 50 μM)
T1 sequence (P11150 23-499): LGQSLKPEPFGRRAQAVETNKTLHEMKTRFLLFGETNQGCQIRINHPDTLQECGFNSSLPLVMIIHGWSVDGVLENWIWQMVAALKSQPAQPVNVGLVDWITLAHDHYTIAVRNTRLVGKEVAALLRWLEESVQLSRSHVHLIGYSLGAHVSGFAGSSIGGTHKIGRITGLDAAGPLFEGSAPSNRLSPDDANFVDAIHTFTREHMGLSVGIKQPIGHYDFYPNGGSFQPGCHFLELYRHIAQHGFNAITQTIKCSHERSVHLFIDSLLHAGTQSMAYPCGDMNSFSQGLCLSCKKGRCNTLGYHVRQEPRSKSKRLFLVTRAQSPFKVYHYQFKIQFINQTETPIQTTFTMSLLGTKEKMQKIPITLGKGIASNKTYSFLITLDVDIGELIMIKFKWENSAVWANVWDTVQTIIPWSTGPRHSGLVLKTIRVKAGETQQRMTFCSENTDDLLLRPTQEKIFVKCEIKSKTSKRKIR
Source text: (§1) Hepatic Lipase (HL) [classified as a triacylglycerol lipase, EC 3.1.1.3, in accordance with the Recommendations of the Nomenclature Committee of the International Union of Biochemistry and Molecular Biology (available on the World Wide Web at the following address: http://www.chem.qmw.ac.uk/iubmb/enzyme/)]
Materials. The hepatic lipase employed was obtained from Dr. Howard Wong of the University of California at Los Angeles (UCLA), USA, or produced and purified using the methods and a cell line provided by Dr. Wong's laboratory. ^3H-triolein (TO) from Amersham, Buckinghamshire, U.K., cat No. TRA191; 5-20 Ci/mmol dissolved in toluene and triolein (Sigma, Cat. No. T-1740). All other reagents are of commercial grade and obtained from various commercial sources.
50 μl TO in a 20 ml scintillation vial and evaporate with N2 for 5 minutes.
Add 1 ml 10% gum arabic and 1.25 ml Tris-Cl pH 8.5 and 2 ml MilliQ water.
Sonicate, on ice, 16 times for 30 seconds with a 30-second interval between cycles.
Add 2.5 ml of 5 M NaCl+2.5 ml BSA (10% in Milli Q, pH 8)+3.25 ml Milli Q
Total volume: 12.5 ml (for 80 reactions )
If an inhibitor is going to be used, it should be incubated with the 50 μl HL (of a 125 mU/ml solution) for 70 minutes at 25° C. A 5 μl aliquot from the incubated 50 μl is added to 150 μl assay mix+45 μl Milli Q™ water and mixed.
Incubate for exactly 30 minutes at 25° C.
Stop the reaction with Methanol:chloroform:heptane 10:9:7: 3.25 ml/vial, mix; then add 1.05 ml buffer (100 mM boric acid, 100 mM potassium carbonate pH 10.5), mix for 10 seconds per vial.
Centrifuge for 20 min/2000 rpm
Take 1 ml of the upper phase+10 ml scintillation fluid and mix by shaking by hand.
Scintillation count for 5 minutes per vial.

[2] = target: T2, Hormone-sensitive lipase (HSL) (Homo sapiens, UniProt Q05469); assay: Hormone-sensitive lipase (HSL) inhibition assay, 3H-labeled triolein or MOME substrate; type: biochemical; conditions: read-out: HSL inhibition (IC50)
T2 sequence (Q05469 1-1076): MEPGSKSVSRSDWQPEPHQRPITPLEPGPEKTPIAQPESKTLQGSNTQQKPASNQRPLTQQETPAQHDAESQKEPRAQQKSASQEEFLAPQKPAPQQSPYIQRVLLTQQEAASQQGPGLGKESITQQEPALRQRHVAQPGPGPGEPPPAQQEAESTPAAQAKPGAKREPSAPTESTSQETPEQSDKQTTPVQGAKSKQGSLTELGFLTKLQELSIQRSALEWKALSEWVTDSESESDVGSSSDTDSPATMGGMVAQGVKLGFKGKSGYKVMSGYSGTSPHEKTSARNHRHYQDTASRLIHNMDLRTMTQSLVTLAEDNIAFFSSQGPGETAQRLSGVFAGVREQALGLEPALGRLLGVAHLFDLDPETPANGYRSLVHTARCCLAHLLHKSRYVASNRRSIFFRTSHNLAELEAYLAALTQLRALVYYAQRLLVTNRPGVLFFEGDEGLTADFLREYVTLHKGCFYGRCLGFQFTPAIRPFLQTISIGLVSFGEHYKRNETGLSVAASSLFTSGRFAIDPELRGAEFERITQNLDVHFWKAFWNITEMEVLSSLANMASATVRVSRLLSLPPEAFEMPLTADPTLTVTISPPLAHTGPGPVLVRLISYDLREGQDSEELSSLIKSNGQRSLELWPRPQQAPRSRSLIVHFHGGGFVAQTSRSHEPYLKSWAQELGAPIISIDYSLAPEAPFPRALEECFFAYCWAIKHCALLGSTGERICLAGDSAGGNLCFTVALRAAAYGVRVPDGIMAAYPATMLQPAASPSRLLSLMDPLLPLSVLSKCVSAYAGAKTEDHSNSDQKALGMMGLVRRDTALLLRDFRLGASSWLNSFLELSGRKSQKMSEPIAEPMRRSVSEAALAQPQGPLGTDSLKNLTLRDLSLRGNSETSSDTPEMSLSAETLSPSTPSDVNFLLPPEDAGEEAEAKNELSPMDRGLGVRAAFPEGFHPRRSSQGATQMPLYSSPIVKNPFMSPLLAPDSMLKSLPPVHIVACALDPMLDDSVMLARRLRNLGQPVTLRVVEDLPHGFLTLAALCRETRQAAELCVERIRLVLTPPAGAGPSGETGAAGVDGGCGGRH
Source text: as §1, with “Hormone-sensitive lipase (HSL)” for “Hepatic Lipase (HL)”
Materials. The Hormone-sensitive lipase employed was provided by Dr. Cecilia Holm of Lund University, Sweden, or produced and purified by Novo Nordisk (NN) using the reagents and protocols employed by Dr. Holm. The substrates used are: ^3H-labeled triolein (TO) from Amersham, Buckinghamshire, U.K. cat No. TRA191; 5-20 Ci/mmol dissolved in toluene, triolein (Sigma, Cat. No. T-1740) and mono-oleoyl-2-O-mono-oleylglycerol (MOME) synthesized at (NN) using the protocols provided by Dr. Cecilia Holm, Lund University, Sweden. Phosphatidyl choline (PC) and phosphatidyl inositol (PI) are from Sigma (St Luis Mo., cat. Nos. P-3556 and P-5954, respectively). All other reagents are of commercial grade and obtained from various commercial sources.
Methods. The preparation of the substrates is as follows:
TO: 30 μl PC:PI (20 mg/ml solution of PC:PI 3:1 prepared in chloroform)+128 μl cold TO+15 μl ^3H-TO
MOME: 30 μl PC:PI+100 μl cold MOME+200 μl ^3H-MOME
They are then evaporated under a gentle stream of N2 followed by 20-30 minutes in a Speedvac™ apparatus to ensure the absence of residual solvent.
The samples are prepared as follows:
Samples/controls: 78 μl PED-BSA+20 μl inhibitor (various concentrations)+2 μl HSL (undiluted 0.12 mg/ml). If no inhibitors are being tested, the reaction contains 98 μl PED-BSA+2 μl HSL.
The samples are put on ice and then sonicated as follows:
With TO as substrate, add 2 ml potassium buffer (0.1M potassium phosphate, pH 7) and then sonicate twice for 1 minute, with a 1-minute interval between cycles. Add an additional 1 ml potassium buffer and sonicate 4 times for 30 seconds, with a 30 second interval in between cycles. To finish, add 1 ml BSA 20%-in potassium buffer, mix by inversion and store on ice until use.
With MOME as substrate: add 2 ml potassium buffer and then sonicate twice for 1 minute, with a 1 minute interval between cycles. Add 1.6 ml potassium buffer and sonicate 4 times for 30 seconds, with a 30-second interval between cycles. To finish, add 0.4 ml BSA 20%-buffer, mix by inversion and store on ice until use.
The enzyme reaction is run at 37° C. The substrate mix is added to the various reactions at 10 second intervals, incubated for 30 minutes in a water bath and then stopped with 3.25 ml of a solution containing CH3OH:CHCl3:heptane (10:9:7). After the addition of 1.05 ml potassium buffer pH10.5, the sample is vortexed thoroughly and centrifuged for 20 min at 2000 r.p.m. One ml of the upper phase is added to 10 ml scintillation fluid, and mixed thoroughly by shaking.
The samples are then counted, 5 min per vial, in a scintillation counter.

O=C(NN1CCc2ccccc2C1)Oc1ccccc1 [Example 1, (3,4-Dihydro-1H-isoquinolin-2-yl)-carbamic Acid Phenyl Ester]
inhibition at 50 µM [1]: 5%
IC50 [2]: 0.2 µM
